In US8952024B2, “Herbicidal pyrimidone derivatives” (E I du Pont de Nemours and Company, priority 2009, dated 2015):

Assays:
Test in all cases: Test B pre-/postemergence plant response
Type in all cases: in vivo
[1] = tested on: downy bromegrass (Bromus tectorum)
Summary of the method: (§1)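 Visual ratings on a 0–100 scale (100 = complete control) were made versus untreated controls 13–15 days after treatment in a greenhouse. Compounds in surfactant-containing non-phytotoxic solvent were applied preemergence to seeds in loam–sand blend or postemergence to 1- to 4-leaf plants (2–18 cm).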

[2] = tested on: velvetleaf (Abutilon theophrasti)
Summary of the method: as §1

[3] = tested on: large crabgrass (Digitaria sanguinalis)
Summary of the method: as §1

[4] = tested on: Surinam grass (Brachiaria decumbens)
Summary of the method: as §1

[5] = tested on: yellow nutsedge (Cyperus esculentus)
Summary of the method: as §1

[6] = tested on: wild oat (Avena fatua)
Summary of the method: as §1

[7] = tested on: cocklebur (Xanthium strumarium)
Summary of the method: as §1

[8] = tested on: green foxtail (Setaria viridis)
Summary of the method: as §1

[9] = tested on: goosegrass (Eleusine indica)
Summary of the method: as §1

[10] = tested on: johnsongrass (Sorghum halepense)
Summary of the method: as §1

[11] = tested on: woolly cupgrass (Eriochloa villosa)
Summary of the method: as §1

[12] = tested on: soybean (Glycine max)
Summary of the method: as §1

[13] = tested on: blackgrass (Alopecurus myosuroides)
Summary of the method: as §1

[14] = tested on: giant foxtail (Setaria faberii)
Summary of the method: as §1

[15] = tested on: corn (Zea mays)
Summary of the method: as §1

[16] = tested on: kochia (Kochia scoparia)
Summary of the method: as §1

[17] = tested on: morningglory (Ipomoea coccinea)
Summary of the method: as §1

[18] = 31 g ai/ha, postemergence, scale 0 to 100, 0 is no effect, 100 is complete control
[19] = 62 g ai/ha, postemergence, 0 is no effect, 100 is complete control, 13 to 15 days
[20] = Postemergence, 125 g ai/ha, visual rating after 13 to 15 days, scale 0 (no effect) to 100 (complete control)
[21] = Postemergence, 250 g ai/ha, scale 0 to 100 (0 no effect, 100 complete control)

With `O=C1CCCC(O)=C1C(=O)c1cnc(-c2ccc(Br)cc2)n(-c2ccccc2)c1=O` [Compound 70] the “Plant response rating, Bromegrass, Downy” value [1, 18] was 10, the “Bromegrass, Downy plant response rating (0 to 100 scale)” value [1, 19] was 50 and the “Plant response rating, Bromegrass, Downy” value [1, 20] was 70. The “Plant response rating, Bromegrass, Downy” value [1, 21] was 70, the “Plant response rating, Velvetleaf” value [2, 18] was 75 and the “Velvetleaf plant response rating (0 to 100 scale)” value [2, 19] was 80. For the same molecule, the “Plant response rating, Velvetleaf” value [2, 20] was 100, the “Plant response rating, Velvetleaf” value [2, 21] was 100 and the “Plant response rating, Crabgrass, Large” value [3, 18] was 80. For the same molecule, the “Crabgrass, Large plant response rating (0 to 100 scale)” value [3, 19] was 90, the “Plant response rating, Crabgrass, Large” value [3, 20] was 95 and the “Plant response rating, Crabgrass, Large” value [3, 21] was 100. The “Plant response rating, Surinam Grass” value [4, 18] was 65, the “Surinam Grass plant response rating (0 to 100 scale)” value [4, 19] was 65 and the “Plant response rating, Surinam Grass” value [4, 20] was 95. For the same molecule, the “Plant response rating, Surinam Grass” value [4, 21] was 100, the “Plant response rating, Nutsedge, Yellow” value [5, 18] was 10 and the “Nutsedge, Yellow plant response rating (0 to 100 scale)” value [5, 19] was 15. The “Plant response rating, Nutsedge, Yellow” value [5, 20] was 40, the “Plant response rating, Nutsedge, Yellow” value [5, 21] was 60 and the “Plant response rating, Oat, Wild” value [6, 18] was 55. The “Oat, Wild plant response rating (0 to 100 scale)” value [6, 19] was 70, the “Plant response rating, Oat, Wild” value [6, 20] was 90 and the “Plant response rating, Oat, Wild” value [6, 21] was 95. The “Plant response rating, Cocklebur” value [7, 18] was 0, the “Cocklebur plant response rating (0 to 100 scale)” value [7, 19] was 0 and the “Plant response rating, Cocklebur” value [7, 20] was 40. For the same molecule, the “Plant response rating, Cocklebur” value [7, 21] was 40, the “Plant response rating, Foxtail, Green” value [8, 18] was 80 and the “Foxtail, Green plant response rating (0 to 100 scale)” value [8, 19] was 85. For the same molecule, the “Plant response rating, Foxtail, Green” value [8, 20] was 98, the “Plant response rating, Foxtail, Green” value [8, 21] was 98 and the “Plant response rating, Goosegrass” value [9, 18] was 75. The “Goosegrass plant response rating (0 to 100 scale)” value [9, 19] was 85, the “Plant response rating, Goosegrass” value [9, 20] was 85 and the “Plant response rating, Goosegrass” value [9, 21] was 95. The “Plant response rating, Johnsongrass” value [10, 18] was 65, the “Johnsongrass plant response rating (0 to 100 scale)” value [10, 19] was 70 and the “Plant response rating, Johnsongrass” value [10, 20] was 80. For the same molecule, the “Plant response rating, Johnsongrass” value [10, 21] was 98, the “Plant response rating, Cupgrass, Woolly” value [11, 18] was 45 and the “Cupgrass, Woolly plant response rating (0 to 100 scale)” value [11, 19] was 65. The “Plant response rating, Cupgrass, Woolly” value [11, 20] was 90, the “Plant response rating, Cupgrass, Woolly” value [11, 21] was 90 and the “Plant response rating, Soybean” value [12, 18] was 75. The “Soybean plant response rating (0 to 100 scale)” value [12, 19] was 75, the “Plant response rating, Soybean” value [12, 20] was 95 and the “Plant response rating, Soybean” value [12, 21] was 98. The “Plant response rating, Blackgrass” value [13, 18] was 30, the “Blackgrass plant response rating (0 to 100 scale)” value [13, 19] was 35 and the “Plant response rating, Blackgrass” value [13, 20] was 35. The “Plant response rating, Blackgrass” value [13, 21] was 50, the “Plant response rating, Foxtail, Giant” value [14, 18] was 75 and the “Foxtail, Giant plant response rating (0 to 100 scale)” value [14, 19] was 85. For the same molecule, the “Plant response rating, Foxtail, Giant” value [14, 20] was 95, the “Plant response rating, Foxtail, Giant” value [14, 21] was 98 and the “Plant response rating, Corn” value [15, 18] was 15. For the same molecule, the “Corn plant response rating (0 to 100 scale)” value [15, 19] was 35, the “Plant response rating, Corn” value [15, 20] was 60 and the “Plant response rating, Corn” value [15, 21] was 75. The “Plant response rating, Kochia” value [16, 18] was 65, the “Kochia plant response rating (0 to 100 scale)” value [16, 19] was 65 and the “Plant response rating, Kochia” value [16, 20] was 75. The “Plant response rating, Kochia” value [16, 21] was 98, the “Plant response rating, Morningglory” value [17, 18] was 98 and the “Morningglory plant response rating (0 to 100 scale)” value [17, 19] was 100. The “Plant response rating, Morningglory” value [17, 20] was 100 and the “Plant response rating, Morningglory” value [17, 21] was 100.
